Test results from patent US20250032485A1, “APPLICATION OF IMIDAZO [1,2-A] PYRAZINE COMPOUNDS OR THEIR PHARMACEUTICALLY ACCEPTABLE SALTS IN THE PREPARATION OF ANTI-CORONAVIRUS DRUGS” (GUANGZHOU MEDICAL UNIVERSITY, priority 2023, published 2025).
Like-named read-outs stand apart in the source and are kept apart here.

Columns and labels:
PLpro of SARS-CoV-2 [1] = target: T1, PLpro of SARS-CoV-2 (Severe acute respiratory syndrome coronavirus 2, UniProt P0DTD1); assay: IC50 determination of inhibition of PLpro activity (RLRGG-AMC substrate); type: biochemical; settings: 13 concentrations 100 μM to 0.0244 μM, GraphPad Prism
PLpro of SARS-CoV-2 [2] = target: T1, PLpro of SARS-CoV-2; assay: Enzyme activity test in vitro: inhibition of PLpro at fixed concentration 50 μM (RLRGG-AMC substrate); type: biochemical; settings: read-out: Inhibition rate at 50 μM (%)
[3] = compound 50 μM, 10 min preincubation at 37° C., Table 1

Row | SMILES | IC50 (PLpro of SARS-CoV-2 [1]) | inhibition at 50 µM (PLpro of SARS-CoV-2 [2]; [3]) | inhibition at 50 µM (PLpro of SARS-CoV-2 [2])
1 | COc1ccc(-c2nc3cnccn3c2Nc2ccc(C(N)=O)cc2)cc1 [P19442, 4-[[2-(4-methoxyphenyl)imidazo[1,2-a]pyrazin-3-yl]amino] benzamide] | 43.2 µM | 61.1% | –
2 | COc1ccc(-c2nc3cnccn3c2Nc2ccc(C(=O)NCc3ccco3)cc2)cc1 [P22445, N-(furan-2-ylmethyl)-4-[[2-(4-methoxy-phenyl)imidazo[1,2-a]pyrazin-3-yl]amino]benzamide] | 13.9 µM | 62.3% | –
3 | Cc1ccc(-c2nc3cnccn3c2Nc2ccc(C(=O)NCCN3CCOCC3)cc2)cc1 [P22423, 4-[[2-(4-methylphenyl)imidazo[1,2-a]pyrazin-3-yl]amino]-N-(2-morpholin-4-ylethyl)benzamide] | 33.5 µM | 54.5% | –
4 | COc1ccc(-c2nc3cnccn3c2Nc2ccc(C(N)=O)cc2)cc1OC [P19454, 4-[[2-(3,4-dimethoxy-phenyl)imidazo [1,2-a]pyrazin-3-yl]amino]benzamide] | 36.8 µM | 53.8% | –
5 | O=C(O)c1ccc(Nc2c(-c3ccc(Cl)cc3)nc3cnccn23)cc1 [P18224, 4-[[2-(4-chlorophenyl)imidazo[1,2-a]pyrazin-3-yl]amino] benzoic acid] | 38.3 µM | 54.6% | –
6 | COC(=O)c1cccc(Nc2c(-c3ccc(N4CCOCC4)cc3)nc3cnccn23)c1 [P141, methyl 3-[[2-(4-morpholin-4-ylphenyl)imidazo [1,2-a]pyrazin-3-yl]amino]benzoate] | 38.1 µM | 63.8% | –
7 | CSc1ccc(-c2nc3cnccn3c2Nc2ccc(C(=O)O)cc2)cc1 [P19445, 4-[[2-(4-methyl-sulfanylphenyl)imidazo [1,2-a]pyrazin-3-yl]amino]benzoic acid] | 47.6 µM | 50.2% | –
8 | CNC(=O)c1cccc(Nc2c(-c3ccc(N(C)C)cc3)nc3cnccn23)c1 [P19443, 3-[[2-[4-(dimethyl-amino)phenyl]imidazo [1,2-a]pyrazin-3-yl]amino]-N-methyl-benzamide] | 31.1 µM | 53% | –
9 | COC(=O)c1cccc(Nc2c(-c3cccc(Cl)c3)nc3cnccn23)c1 [P19456, methyl 3-[[2-(3-chlorophenyl)imidazo[1,2-a]pyrazin-3-yl]amino] benzoate] | 60.9 µM | 47.8% | –
10 | Cc1ccc(-c2nc3cnccn3c2Nc2ccc(C(=O)N3CCOCC3)cc2)cc1 [P22415, [4-[[2-(4-methyl-phenyl)imidazo[1,2-a]pyrazin-3-yl]amino]phenyl]-morpholin-4-ylmethanone] | 49.7 µM | 63.3% | –
11 | COc1cc(-c2nc3cnccn3c2Nc2ccc(C(=O)O)cc2)ccc1O [P19455, 4-[[2-(4-hydroxy-3-methoxyphenyl)imidazo[1,2-a]pyrazin-3-yl]amino]benzoic acid] | 26.6 µM | 53.1% | –
12 | COC(=O)c1cccc(Nc2c(-c3ccc(N(C)C)cc3)nc3cnccn23)c1 [P19446, methyl 3-[[2-[4-(dimethyl-amino)phenyl]imidazo [1,2-a]pyrazin-3-yl]amino]benzoate] | 30.3 µM | 65.8% | –
13 | CSc1ccc(-c2nc3cnccn3c2Nc2cccc(C(=O)NCc3ccco3)c2)cc1 [P22479] | 35.4 µM | 58.8% | –
14 | COc1ccc(Nc2c(-c3ccc(OC)c(OC)c3)nc3cnccn23)cc1OC [P19453, N,2-bis(3,4-dimethoxy-phenyl)imidazo [1,2-a]pyrazin-3-amine] | 6.45 µM | 65.5% | –
15 | COc1ccc(-c2nc3cnccn3c2Nc2ccc(C(=O)NC3CCCCC3)cc2)cc1 [P22414, N-cyclohexyl-4-[[2-(4-methoxyphenyl)imidazo[1,2-a]pyrazin-3-yl]amino]benzamide] | 45.9 µM | 51.1% | –
16 | COc1ccc(-c2nc3cnccn3c2Nc2cccc(C(N)=O)c2)cc1 [P22475, 3-[[2-(4-methoxy-phenyl)imidazo[1,2-a]pyrazin-3-yl]amino] benzamide] | 16.6 µM | 60.1% | –
17 | CCNC(=O)c1ccc(Nc2c(-c3ccc(OC)cc3)nc3cnccn23)cc1 [P22471, Nethyl-4-[[2-(4-methoxyphenyl)imidazo[1,2-a]pyrazin-3-yl]amino]benzamide] | 35.1 µM | 52.8% | –
18 | COC(=O)c1cccc(Nc2c(-c3ccc([N+](=O)[O-])cc3)nc3cnccn23)c1 [P24823, methyl 3-[[2-(4-nitrophenyl)imidazo[1,2-a]pyrazin-3-yl]amino] benzoate] | – | – | 31.2%
19 | COc1ccc(-c2nc3cnccn3c2Nc2ccc(C(=O)N3CCOCC3)cc2)cc1 [P22405, [4-[[2-(4-methoxy-phenyl)imidazo[1,2-a]pyrazin-3-yl]amino]phenyl]-morpholin-4-ylmethanone] | – | – | 36.5%

Row | SMILES | IC50 (PLpro of SARS-CoV-2 [1]) | inhibition at 50 µM (PLpro of SARS-CoV-2 [2]; [3]) | inhibition at 50 µM (PLpro of SARS-CoV-2 [2])
20 | COC(=O)c1ccc(-c2nc3cnccn3c2Nc2ccc3c(c2)OCO3)cc1 [P24872, methyl 4-[3-(1,3-benzodioxol-5-ylamino)imidazo [1,2-a]pyrazin-2-yl]benzoate] | – | – | 27.2%
21 | Cc1ccc(-c2nc3cnccn3c2Nc2ccc(C(N)=O)cc2)cc1 [P19452, 4-[[2-(4-methyl-phenyl)imidazo[1,2-a]pyrazin-3-yl]amino] benzamide] | 28.4 µM | 53.1% | –
22 | CSc1ccc(-c2nc3cnccn3c2Nc2cccc(C(=O)N3CCOCC3)c2)cc1 [P22439, [3-[[2-(4-methyl-sulfanylphenyl)imidazo [1,2-a]pyrazin-3-yl]amino]phenyl]-morpholin-4-ylmethanone] | – | – | 23.2%
23 | CNC(=O)c1cccc(Nc2c(-c3ccc(Cl)cc3)nc3cnccn23)c1 [P19512, 3-[[2-(4-chlorophenyl)imidazo[1,2-a]pyrazin-3-yl]amino]-N-methylbenzamide] | – | – | 41.6%
24 | O=C(NC1CCCCC1)c1ccc(Nc2c(-c3ccccc3)nc3cnccn23)cc1 [P22404, N-cyclohexyl-4-[(2-phenylimidazo[1,2-a]pyrazin-3-yl)amino] benzamide] | – | – | 26.1%
25 | O=C(NCc1ccco1)c1cccc(Nc2c(-c3ccc(Cl)cc3)nc3cnccn23)c1 [P22469, 3-[[2-(4-chlorophenyl)imidazo[1,2-a]pyrazin-3-yl]amino]-N-(furan-2-ylmethyl) benzamide] | – | – | 40.5%
26 | COc1ccc(-c2nc3cnccn3c2Nc2c(C)cccc2C)cc1OC [P19483, 2-(3,4-dimethoxy-phenyl)-N-(2,6-di-methylphenyl)imidazo [1,2-a]pyrazin-3-amine] | – | – | 37.8%
27 | O=C(NCC1CCCO1)c1cccc(Nc2c(-c3ccccc3)nc3cnccn23)c1 (stereo not shown) [P22477, N-(oxolan-2-ylmethyl)-3-[(2-phenylimidazo [1,2-a]pyrazin-3-yl)amino]benzamide] | – | – | 41%
28 | O=C(NC1CCCCC1)c1cccc(Nc2c(-c3ccc(Cl)cc3)nc3cnccn23)c1 [P22438, 3-[[2-(4-chlorophenyl)imidazo[1,2-a]pyrazin-3-yl]amino]-N-cyclohexyl-benzamide] | 40.8 µM | 54.2% | –
29 | COC(=O)c1cccc(Nc2c(-c3cc(Br)ccc3O)nc3cnccn23)c1 [P19466, methyl 3-[[2-(5-bromo-2-hydroxyphenyl)imidazo [1,2-a]pyrazin-3-yl]amino]benzoate] | – | – | 31.9%
30 | CSc1ccc(-c2nc3cnccn3c2Nc2ccc(C(=O)N3CCOCC3)cc2)cc1 [P22425, [4-[[2-(4-methyl-sulfanylphenyl)imidazo [1,2-a]pyrazin-3-yl]amino]phenyl]-morpholin-4-ylmethanone] | – | – | 40.7%
31 | O=C(O)c1ccc(Nc2c(-c3cc(Br)ccc3O)nc3cnccn23)cc1 [P22503, 4-[[2-(5-bromo-2-hydroxyphenyl)imidazo [1,2-a]pyrazin-3-yl]amino]benzoic acid] | – | – | 27.6%
32 | COc1ccc(-c2nc3cnccn3c2Nc2ccc(C(=O)NCc3ccco3)cc2)cc1OC [P22480, 4-[[2-(3,4-dimethoxy-phenyl)imidazo[1,2-a]pyrazin-3-yl]amino]-N-(furan-2-ylmethyl)benzamide] | – | – | 40.6%
33 | CCNC(=O)c1cccc(Nc2c(-c3ccc(OC)cc3)nc3cnccn23)c1 [P28734, N-ethyl-3-[[2-(4-methoxyphenyl)imidazo[1,2-a]pyrazin-3-yl]amino]benzamide] | – | – | 41%
34 | COc1ccc(-c2nc3cnccn3c2Nc2ccc(C(=O)NCCN(C)C)cc2)cc1 [P22443, N-[2-(dimethylamino)ethyl]-4-[[2-(4-methoxyphenyl)imidazo[1,2-a]pyrazin-3-yl]amino]benzamide] | – | – | 41.2%
35 | O=C(c1cccc(Nc2c(-c3ccccc3)nc3cnccn23)c1)N1CCOCC1 [P22409, morpholin-4-yl-[3-[(2-phenylimidazo [1,2-a]pyrazin-3-yl)amino]phenyl] methanone] | – | – | 28.2%
36 | COC(=O)c1cccc(Nc2c(-c3ccc(C)cc3)nc3cnccn23)c1 [P19515, methyl 3-[[2-(4-methyl-phenyl)imidazo[1,2-a]pyrazin-3-yl]amino] benzoate] | – | – | 37.1%
37 | O=C(O)c1cccc(Nc2c(-c3ccc(Cl)cc3)nc3cnccn23)c1 [P19516, 3-[[2-(4-chlorophenyl)imidazo[1,2-a]pyrazin-3-yl]amino] benzoic acid] | – | – | 32.8%
38 | CSc1ccc(-c2nc3cnccn3c2Nc2ccc(C(N)=O)cc2)cc1 [P19462, 4-[[2-(4-methyl-sulfanylphenyl)imidazo [1,2-a]pyrazin-3-yl]amino]benzamide] | 26 µM | 65% | –
